In publication PMC7982320 (Pharmacology Research & Perspectives, 2021):
Values joined by “and” are separate entries in the source; they are usually repeats but may differ in a detail not shown here. Equal entries are not always repeated. “Also recorded” adds a separate entry of the source. Where two headings read alike, the source gives them in different places.

Key:
CYP2B6 [1] = target: CYP2B6 (Homo sapiens, UniProt P20813); type: in vitro ADME; conditions: read-out: IC50, No preincubation; CYP2B6, pooled HLMs, n = 3
Sequence of CYP2B6 (Homo sapiens, UniProt P20813) (P20813 whole entry): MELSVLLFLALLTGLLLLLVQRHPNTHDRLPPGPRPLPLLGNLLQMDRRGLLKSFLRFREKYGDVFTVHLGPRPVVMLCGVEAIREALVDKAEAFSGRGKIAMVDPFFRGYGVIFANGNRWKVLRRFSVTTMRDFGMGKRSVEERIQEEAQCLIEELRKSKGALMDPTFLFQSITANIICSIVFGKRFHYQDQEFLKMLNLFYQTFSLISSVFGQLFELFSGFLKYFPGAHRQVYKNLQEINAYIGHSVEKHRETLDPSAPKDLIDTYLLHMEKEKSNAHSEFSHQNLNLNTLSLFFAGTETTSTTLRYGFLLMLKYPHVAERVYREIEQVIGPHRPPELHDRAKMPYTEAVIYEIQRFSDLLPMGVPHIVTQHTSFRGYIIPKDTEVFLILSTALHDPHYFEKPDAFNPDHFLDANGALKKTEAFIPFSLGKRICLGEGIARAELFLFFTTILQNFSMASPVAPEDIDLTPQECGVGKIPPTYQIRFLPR

CYP2B6 [2] = assay: in vitro; type: in vitro ADME, human; conditions: 48 h
human OATP1B1 = target: T1, human OATP1B1 (Homo sapiens, UniProt Q9Y6L6); assay: Transporter inhibition, uptake assay; type: in vitro ADME
T1 sequence (Q9Y6L6 1-691): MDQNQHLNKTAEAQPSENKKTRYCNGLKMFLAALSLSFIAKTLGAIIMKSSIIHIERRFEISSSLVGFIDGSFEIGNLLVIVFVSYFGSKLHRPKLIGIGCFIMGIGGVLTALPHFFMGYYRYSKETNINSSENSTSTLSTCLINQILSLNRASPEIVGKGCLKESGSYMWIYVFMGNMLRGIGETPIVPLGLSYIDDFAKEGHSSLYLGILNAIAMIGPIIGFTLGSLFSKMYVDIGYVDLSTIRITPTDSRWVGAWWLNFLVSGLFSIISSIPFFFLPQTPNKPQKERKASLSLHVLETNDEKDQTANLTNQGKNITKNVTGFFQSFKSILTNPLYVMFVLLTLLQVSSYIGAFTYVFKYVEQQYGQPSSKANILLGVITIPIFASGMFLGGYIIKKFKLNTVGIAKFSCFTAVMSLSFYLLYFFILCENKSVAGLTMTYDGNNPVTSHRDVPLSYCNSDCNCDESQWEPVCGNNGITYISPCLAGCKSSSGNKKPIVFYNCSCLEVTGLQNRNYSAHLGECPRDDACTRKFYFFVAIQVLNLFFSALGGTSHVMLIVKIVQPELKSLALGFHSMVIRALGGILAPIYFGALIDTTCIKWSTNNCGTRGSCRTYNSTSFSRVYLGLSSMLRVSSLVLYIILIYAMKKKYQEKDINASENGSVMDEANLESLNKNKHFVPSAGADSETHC

CYP1A2 = CYP1A2 (Homo sapiens, UniProt P05177); type: in vitro ADME; conditions: read-out: IC50, No preincubation; CYP1A2, pooled HLMs, n = 3
Sequence of CYP1A2 (P05177 whole entry): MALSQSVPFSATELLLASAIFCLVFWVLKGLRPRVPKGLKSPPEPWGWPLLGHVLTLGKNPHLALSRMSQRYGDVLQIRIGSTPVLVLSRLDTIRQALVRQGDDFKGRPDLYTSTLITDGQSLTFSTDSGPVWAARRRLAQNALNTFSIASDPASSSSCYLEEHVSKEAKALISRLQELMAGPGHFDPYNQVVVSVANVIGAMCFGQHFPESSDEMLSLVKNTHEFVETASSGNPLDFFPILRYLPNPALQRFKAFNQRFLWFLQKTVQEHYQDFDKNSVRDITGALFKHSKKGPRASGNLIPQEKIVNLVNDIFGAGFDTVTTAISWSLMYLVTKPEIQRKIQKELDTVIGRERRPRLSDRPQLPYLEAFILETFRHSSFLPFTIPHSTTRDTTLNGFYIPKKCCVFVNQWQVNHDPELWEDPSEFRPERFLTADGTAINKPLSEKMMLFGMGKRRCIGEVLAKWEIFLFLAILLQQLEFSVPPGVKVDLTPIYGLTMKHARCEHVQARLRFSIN

[3] = combined DMD patient populations, DFZ 0.9 mg/kg/day; ref PTC internal data; cited from earlier work
CYP2C9 = CYP2C9 (Homo sapiens, UniProt P11712); assay: CYP inhibition in pooled human liver microsomes, diclofenac probe; type: in vitro ADME; conditions: read-out: IC50, No preincubation; CYP2C9, pooled HLMs, n = 3
Sequence of CYP2C9 (P11712 whole entry): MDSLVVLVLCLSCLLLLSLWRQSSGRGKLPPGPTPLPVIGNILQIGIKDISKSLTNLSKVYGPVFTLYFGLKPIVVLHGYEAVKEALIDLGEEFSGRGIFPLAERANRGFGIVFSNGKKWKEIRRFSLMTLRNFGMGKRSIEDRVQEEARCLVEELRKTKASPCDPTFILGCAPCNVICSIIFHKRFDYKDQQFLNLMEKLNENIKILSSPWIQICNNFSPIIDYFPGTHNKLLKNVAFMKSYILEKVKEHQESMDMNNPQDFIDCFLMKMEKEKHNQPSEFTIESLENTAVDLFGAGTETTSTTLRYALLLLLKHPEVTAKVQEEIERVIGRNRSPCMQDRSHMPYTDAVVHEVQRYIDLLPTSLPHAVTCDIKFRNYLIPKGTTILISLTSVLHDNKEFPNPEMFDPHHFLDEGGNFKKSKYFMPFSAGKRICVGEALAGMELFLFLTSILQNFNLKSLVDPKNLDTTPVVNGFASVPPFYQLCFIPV

CYP3A4 [4] = target: CYP3A4 (Homo sapiens, UniProt P08684); assay: CYP inhibition in pooled human liver microsomes, midazolam or testosterone probe; type: in vitro ADME; conditions: for IC50: read-out: IC50, No preincubation, pooled HLMs, n = 3
Sequence of CYP3A4 (Homo sapiens, UniProt P08684) (P08684 whole entry): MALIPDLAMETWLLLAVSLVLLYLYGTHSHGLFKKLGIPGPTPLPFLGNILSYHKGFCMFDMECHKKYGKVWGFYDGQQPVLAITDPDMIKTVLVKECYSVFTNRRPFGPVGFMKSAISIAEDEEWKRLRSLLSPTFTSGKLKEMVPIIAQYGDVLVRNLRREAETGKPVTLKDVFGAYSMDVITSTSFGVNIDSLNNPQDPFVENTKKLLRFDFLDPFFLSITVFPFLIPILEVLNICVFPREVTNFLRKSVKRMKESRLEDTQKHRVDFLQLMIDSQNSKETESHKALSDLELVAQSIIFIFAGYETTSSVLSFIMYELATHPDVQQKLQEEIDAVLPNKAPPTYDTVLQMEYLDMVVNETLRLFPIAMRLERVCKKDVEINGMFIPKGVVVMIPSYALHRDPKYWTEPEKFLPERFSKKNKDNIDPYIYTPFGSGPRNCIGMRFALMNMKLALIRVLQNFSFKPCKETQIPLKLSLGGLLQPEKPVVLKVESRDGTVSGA

CYP2C19 = CYP2C19 (Homo sapiens, UniProt P33261); assay: CYP inhibition in pooled human liver microsomes, S-mephenytoin probe; type: in vitro ADME
Sequence of CYP2C19 (P33261 whole entry): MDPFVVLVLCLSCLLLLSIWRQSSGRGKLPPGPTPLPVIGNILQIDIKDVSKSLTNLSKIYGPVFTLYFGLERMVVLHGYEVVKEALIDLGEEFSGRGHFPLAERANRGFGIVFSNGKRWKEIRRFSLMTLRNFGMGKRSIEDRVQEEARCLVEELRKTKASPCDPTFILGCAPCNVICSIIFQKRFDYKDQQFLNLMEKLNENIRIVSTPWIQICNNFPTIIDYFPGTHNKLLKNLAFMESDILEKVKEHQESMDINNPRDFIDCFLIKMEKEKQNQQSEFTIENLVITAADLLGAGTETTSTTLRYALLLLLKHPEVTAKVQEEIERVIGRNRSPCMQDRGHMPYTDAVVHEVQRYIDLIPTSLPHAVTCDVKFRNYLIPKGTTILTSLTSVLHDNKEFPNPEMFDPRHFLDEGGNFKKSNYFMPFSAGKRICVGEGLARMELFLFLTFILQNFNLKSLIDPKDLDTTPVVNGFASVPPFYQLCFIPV

CYP3A4 [5] = conditions: 48 h
CYP2D6 = CYP2D6 (Homo sapiens, UniProt P10635); assay: CYP inhibition in pooled human liver microsomes, dextromethorphan probe; type: in vitro ADME; conditions: read-out: IC50, No preincubation; CYP2D6, pooled HLMs, n = 3
Sequence of CYP2D6 (P10635 whole entry): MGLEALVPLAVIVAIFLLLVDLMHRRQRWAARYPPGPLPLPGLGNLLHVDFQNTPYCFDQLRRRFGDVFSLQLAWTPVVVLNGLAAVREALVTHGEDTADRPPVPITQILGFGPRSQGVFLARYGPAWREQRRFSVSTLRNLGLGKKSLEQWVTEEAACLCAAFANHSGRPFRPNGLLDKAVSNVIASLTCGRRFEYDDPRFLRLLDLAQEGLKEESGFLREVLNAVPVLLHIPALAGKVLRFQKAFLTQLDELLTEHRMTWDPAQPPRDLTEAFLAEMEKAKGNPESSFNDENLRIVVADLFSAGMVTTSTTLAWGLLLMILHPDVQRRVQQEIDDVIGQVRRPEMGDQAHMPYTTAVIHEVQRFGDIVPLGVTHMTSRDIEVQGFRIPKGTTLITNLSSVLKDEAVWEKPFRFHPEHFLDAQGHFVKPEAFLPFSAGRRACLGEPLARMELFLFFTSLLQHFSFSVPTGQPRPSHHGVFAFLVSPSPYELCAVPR

CC1=N[C@]2(C(=O)CO)[C@@H](C[C@H]3[C@@H]4C[C@@H](O)C5=CC(=O)C=C[C@]5(C)[C@H]4[C@@H](O)C[C@@]32C)O1 [6β‐OH‐21‐desDFZ, 6β‐Hydroxy‐21‐desacetyl deflazacort]
IC50 (CYP2B6 [1]): > 50 µM | CYP2B6 enzyme activity fold induction (CYP2B6 [2]; donor one, 0.002 µM): 0.921 fold | CYP2B6 mRNA fold induction (CYP2B6 [2]; donor one, 0.002 µM): 0.680 fold | CYP2B6 enzyme activity fold induction (CYP2B6 [2]; donor one, 0.01 µM): 0.826 fold | CYP2B6 mRNA fold induction (CYP2B6 [2]; donor one, 0.01 µM): 0.750 fold | CYP2B6 enzyme activity fold induction (CYP2B6 [2]; donor one, 0.05 µM): 0.767 fold | CYP2B6 mRNA fold induction (CYP2B6 [2]; donor one, 0.05 µM): 0.736 fold | CYP2B6 enzyme activity fold induction (CYP2B6 [2]; donor one, 0.25 µM): 0.752 fold | CYP2B6 mRNA fold induction (CYP2B6 [2]; donor one, 0.25 µM): 0.794 fold | CYP2B6 enzyme activity fold induction (CYP2B6 [2]; donor one, 5 µM): 0.832 fold | CYP2B6 mRNA fold induction (CYP2B6 [2]; donor one, 5 µM): 0.616 fold | CYP2B6 enzyme activity fold induction (CYP2B6 [2]; donor one, 10 µM): 0.814 fold | CYP2B6 mRNA fold induction (CYP2B6 [2]; donor one, 10 µM): 0.663 fold | CYP2B6 enzyme activity fold induction (CYP2B6 [2]; donor one, 20 µM): 0.896 fold | CYP2B6 mRNA fold induction (CYP2B6 [2]; donor one, 20 µM): 0.756 fold | CYP2B6 enzyme activity fold induction (CYP2B6 [2]; donor three, 0.002 µM): 0.836 fold | CYP2B6 mRNA fold induction (CYP2B6 [2]; donor three, 0.002 µM): 0.704 fold | CYP2B6 enzyme activity fold induction (CYP2B6 [2]; donor three, 0.01 µM): 0.829 fold | CYP2B6 mRNA fold induction (CYP2B6 [2]; donor three, 0.01 µM): 0.745 fold | CYP2B6 enzyme activity fold induction (CYP2B6 [2]; donor three, 0.05 µM): 0.829 fold | CYP2B6 mRNA fold induction (CYP2B6 [2]; donor three, 0.05 µM): 0.721 fold | CYP2B6 enzyme activity fold induction (CYP2B6 [2]; donor three, 0.25 µM): 0.810 fold | CYP2B6 mRNA fold induction (CYP2B6 [2]; donor three, 0.25 µM): 0.726 fold | CYP2B6 enzyme activity fold induction (CYP2B6 [2]; donor three, 5 µM): 1.01 fold | CYP2B6 mRNA fold induction (CYP2B6 [2]; donor three, 5 µM): 0.791 fold | CYP2B6 enzyme activity fold induction (CYP2B6 [2]; donor three, 10 µM): 1.13 fold | CYP2B6 mRNA fold induction (CYP2B6 [2]; donor three, 10 µM): 0.806 fold | CYP2B6 enzyme activity fold induction (CYP2B6 [2]; donor three, 20 µM): 1.08 fold | CYP2B6 mRNA fold induction (CYP2B6 [2]; donor three, 20 µM): 0.840 fold | CYP2B6 enzyme activity fold induction (CYP2B6 [2]; donor two, 0.002 µM): 0.960 fold | CYP2B6 mRNA fold induction (CYP2B6 [2]; donor two, 0.002 µM): 0.643 fold | CYP2B6 enzyme activity fold induction (CYP2B6 [2]; donor two, 0.01 µM): 0.895 fold | CYP2B6 mRNA fold induction (CYP2B6 [2]; donor two, 0.01 µM): 0.522 fold | CYP2B6 enzyme activity fold induction (CYP2B6 [2]; donor two, 0.05 µM): 0.944 fold | CYP2B6 mRNA fold induction (CYP2B6 [2]; donor two, 0.05 µM): 0.571 fold | CYP2B6 enzyme activity fold induction (CYP2B6 [2]; donor two, 0.25 µM): 0.963 fold | CYP2B6 mRNA fold induction (CYP2B6 [2]; donor two, 0.25 µM): 0.622 fold | CYP2B6 enzyme activity fold induction (CYP2B6 [2]; donor two, 5 µM): 1.22 fold | CYP2B6 mRNA fold induction (CYP2B6 [2]; donor two, 5 µM): 0.515 fold | CYP2B6 enzyme activity fold induction (CYP2B6 [2]; donor two, 10 µM): 1.20 fold | CYP2B6 mRNA fold induction (CYP2B6 [2]; donor two, 10 µM): 0.596 fold | CYP2B6 enzyme activity fold induction (CYP2B6 [2]; donor two, 20 µM): 1.40 fold | CYP2B6 mRNA fold induction (CYP2B6 [2]; donor two, 20 µM): 0.809 fold | induction of CYP2B6 (mRNA or enzyme activity), conclusion (CYP2B6 [2]; human hepatocytes, three donors): no meaningful concentration‐dependent induction; also recorded: did not appear to be an inducer; also recorded: did not induce | estimated plasma Cmax/IC50 ratio (human OATP1B1; OATP1B1, Cmax 0.34 µM, assumed 100% free): 0.009 | Maximum inhibition at 50 µM (human OATP1B1; OATP1B1 UPT, n = 3): 67 % of control | IC50 (human OATP1B1; OATP1B1 UPT, brackets: 95% confidence interval): 36.7 µM | IC50 (CYP1A2): > 50 µM | plasma Cmax at steady state, mean value [3]: 142 ng/mL | IC50 (CYP2C9): > 50 µM | estimated plasma Cmax/IC50 ratio (CYP3A4 [4]; CYP3A4, Cmax 0.34 µM, assumed 100% free): 0.01 | IC50 (CYP3A4 [4]; CYP3A4 (Midazolam)): ~35 µM and ≥ 20 µM | IC50 (CYP3A4 [4]; CYP3A4 (Midazolam), listed as 6β‐hydroxy‐21‐desacetyl deflazacort): 35 µM | IC50 (CYP3A4 [4]; CYP3A4 (Testosterone)): > 50 µM | estimated plasma Cmax/IC50 ratio (CYP2C19; CYP2C19, Cmax 0.34 µM, assumed 100% free): 0.007 | IC50 (CYP2C19; read-out: IC50, No preincubation, CYP2C19, pooled HLMs, n = 3): ~50 µM | CYP3A4 enzyme activity fold induction (CYP3A4 [5]; donor one, 0.002 µM): 0.600 fold | CYP3A4 mRNA fold induction (CYP3A4 [5]; donor one, 0.002 µM): 0.450 fold | CYP3A4 enzyme activity fold induction (CYP3A4 [5]; donor one, 0.01 µM): 0.595 fold | CYP3A4 mRNA fold induction (CYP3A4 [5]; donor one, 0.01 µM): 0.583 fold | CYP3A4 enzyme activity fold induction (CYP3A4 [5]; donor one, 0.05 µM): 0.604 fold | CYP3A4 mRNA fold induction (CYP3A4 [5]; donor one, 0.05 µM): 0.507 fold | CYP3A4 enzyme activity fold induction (CYP3A4 [5]; donor one, 0.25 µM): 0.685 fold | CYP3A4 mRNA fold induction (CYP3A4 [5]; donor one, 0.25 µM): 0.681 fold | CYP3A4 enzyme activity fold induction (CYP3A4 [5]; donor one, 5 µM): 0.451 fold | CYP3A4 mRNA fold induction (CYP3A4 [5]; donor one, 5 µM): 0.647 fold | CYP3A4 enzyme activity fold induction (CYP3A4 [5]; donor one, 10 µM): 0.446 fold | CYP3A4 mRNA fold induction (CYP3A4 [5]; donor one, 10 µM): 0.890 fold | CYP3A4 enzyme activity fold induction (CYP3A4 [5]; donor one, 20 µM): 0.561 fold | CYP3A4 mRNA fold induction (CYP3A4 [5]; donor one, 20 µM): 1.74 fold | CYP3A4 enzyme activity fold induction (CYP3A4 [5]; donor three, 0.002 µM): 0.626 fold | CYP3A4 mRNA fold induction (CYP3A4 [5]; donor three, 0.002 µM): 0.562 fold | CYP3A4 enzyme activity fold induction (CYP3A4 [5]; donor three, 0.01 µM): 0.543 fold | CYP3A4 mRNA fold induction (CYP3A4 [5]; donor three, 0.01 µM): 0.484 fold | CYP3A4 enzyme activity fold induction (CYP3A4 [5]; donor three, 0.05 µM): 0.545 fold | CYP3A4 mRNA fold induction (CYP3A4 [5]; donor three, 0.05 µM): 0.450 fold | CYP3A4 enzyme activity fold induction (CYP3A4 [5]; donor three, 0.25 µM): 0.668 fold | CYP3A4 mRNA fold induction (CYP3A4 [5]; donor three, 0.25 µM): 0.684 fold | CYP3A4 enzyme activity fold induction (CYP3A4 [5]; donor three, 5 µM): 0.542 fold | CYP3A4 mRNA fold induction (CYP3A4 [5]; donor three, 5 µM): 0.615 fold | CYP3A4 enzyme activity fold induction (CYP3A4 [5]; donor three, 10 µM): 0.563 fold | CYP3A4 mRNA fold induction (CYP3A4 [5]; donor three, 10 µM): 0.764 fold | CYP3A4 enzyme activity fold induction (CYP3A4 [5]; donor three, 20 µM): 0.637 fold | CYP3A4 mRNA fold induction (CYP3A4 [5]; donor three, 20 µM): 1.33 fold | CYP3A4 enzyme activity fold induction (CYP3A4 [5]; donor two, 0.002 µM): 0.601 fold | CYP3A4 mRNA fold induction (CYP3A4 [5]; donor two, 0.002 µM): 0.739 fold | CYP3A4 enzyme activity fold induction (CYP3A4 [5]; donor two, 0.01 µM): 0.635 fold | CYP3A4 mRNA fold induction (CYP3A4 [5]; donor two, 0.01 µM): 0.714 fold | CYP3A4 enzyme activity fold induction (CYP3A4 [5]; donor two, 0.05 µM): 0.657 fold | CYP3A4 mRNA fold induction (CYP3A4 [5]; donor two, 0.05 µM): 0.739 fold | CYP3A4 enzyme activity fold induction (CYP3A4 [5]; donor two, 0.25 µM): 0.769 fold | CYP3A4 mRNA fold induction (CYP3A4 [5]; donor two, 0.25 µM): 0.817 fold | CYP3A4 enzyme activity fold induction (CYP3A4 [5]; donor two, 5 µM): 0.690 fold | CYP3A4 mRNA fold induction (CYP3A4 [5]; donor two, 5 µM): 0.856 fold | CYP3A4 enzyme activity fold induction (CYP3A4 [5]; donor two, 10 µM): 0.637 fold | CYP3A4 mRNA fold induction (CYP3A4 [5]; donor two, 10 µM): 1.02 fold | CYP3A4 enzyme activity fold induction (CYP3A4 [5]; donor two, 20 µM): 0.856 fold | CYP3A4 mRNA fold induction (CYP3A4 [5]; donor two, 20 µM): 1.95 fold | IC50 (CYP2D6): > 50 µM
